In one data set the target is T1, 17β-HSD10 (Homo sapiens, UniProt Q99714).
T1 construct: inferred from Ni-NTA purification with imidazole elution; made in house; host or cells: E. coli BL21 (DE3)
T1 sequence (Q99714 1-261): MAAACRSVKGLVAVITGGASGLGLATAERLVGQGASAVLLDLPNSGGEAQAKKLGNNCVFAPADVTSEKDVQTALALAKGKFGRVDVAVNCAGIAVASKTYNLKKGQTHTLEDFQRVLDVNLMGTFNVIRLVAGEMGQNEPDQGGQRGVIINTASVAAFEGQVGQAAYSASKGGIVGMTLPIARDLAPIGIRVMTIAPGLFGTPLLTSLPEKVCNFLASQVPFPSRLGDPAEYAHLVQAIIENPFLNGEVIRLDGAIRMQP
In words: Inhibition type determination with respect to substrate 17β-estradiol (Hanes–Woolf plot). It is filed as biochemical. The note with it: compound at 3, 6 and 9 μM, 17β-estradiol 12.5–75 μM, NAD+ 500 μM. On the procedure:
The uninhibited enzymatic reaction (0 μM 23) was compared with the enzymatic reaction at three concentrations of compound 23 (3, 6, and 9 μM) using 17β-estradiol as the substrate. […] Such inhibitor binds the enzyme preventing the formation of the enzyme–substrate complex. […] This hypothesis was confirmed by the kinetic experiment. The obtained data were linearized by using Hanes–Woolf plot (Figure 2).
The type of inhibition of compound 23 was determined with respect to the substrate 17β-estradiol. The inhibitor was determined at three different concentrations (3, 6, and 9 μM) in combination with different concentrations of 17β-estradiol (12.5–75 μM) and a saturated NAD^+ concentration (500 μM). As vehicle control, DMSO was used. The obtained data were analyzed using GraphPad Prism 8.4.3 (GraphPad Software Inc.). All measurements were performed in triplicate.

The subject of data set [1] is HEK-293 cells. In words: CellTiter-Glo luminescent cell viability assay. In kind it is cell-based. The note with it: HEK-293, 1, 10 and 20 μM. The procedure:
(§1) Finally, because the strongest inhibitor identified in vitro compound 23 has a favorable permeability coefficient, its potency to inhibit 17β-HSD10 also at the cellular level was determined. First, it was necessary to exclude the possibility that higher concentrations of compound 23 could be unfavorable to cells. The effects of compound 23 on the cellular viability and cytotoxicity of this compound (1, 10, and 20 μM) were determined using CellTiter-Glo Viability Assay and CellTox Green Assay, respectively, on HEK-293 cell line.
(§2) HEK-293 cells in DMEM (Capricorn) were supplemented with fetal bovine serum (10%, Gibco), L-glutamine (2 mM, Lonza), and nonessential amino acid additives (Gibco). Cells were maintained at 37 °C under a humidified atmosphere of 5% CO2. Compound 23 was tested on the HEK-293 cell line on cell viability using CellTox Green (G8741, Promega) and the CellTiter-Glo 2.0 kit (G9241, Promega), respectively, to establish their cytotoxic effect. Using a Tecan Spark 10 M instrument, the measurements were performed as end point methods in the multiplex. For multiplex measurement, 7500 cells were seeded per well in 50 μL of culture media and cultured for 24 h before the addition of selected compounds. […] Next, the CellTiter-Glo Luminescent Cell Viability Assay with an integration time of 500 ms was determined.
Background: In ATP-based viability assays light output follows the ATP content of the culture.

Data set [2] concerns HEK-293 cells. In words: CellTox Green cytotoxicity assay. In kind it is cell-based. Conditions: HEK-293, up to 20 μM. The procedure: as §1, §2
Data set [3] addresses T2, 17β-HSD10 overexpressed in HEK-293 (HEK-293-HSD10 cell line) (Homo sapiens, UniProt Q99714).
T2 construct: expressed in transfected cells; host or cells: HEK-293 (HEK-293-HSD10)
T2 sequence (Q99714 1-261): T1 sequence (Q99714 1-261)
In words: Fluorogenic (−)–CHANA assay for cellular inhibition of 17β-HSD10. Conditions: HEK-293-HSD10, (−)–CHANA probe. It is filed as cell-based. The procedure: Identical concentrations of compound 23 were used for fluorogenic cellular assay using a special probe (−)–CHANA as a substrate for 17β-HSD10 overexpressed in HEK-293 (HEK-293-HSD10 cell line).[15] […] The exact IC50 value at the cellular level was not possible to determine because of some method interferences, as well as its unknown cytotoxic characteristics. Higher IC50 (>20 μM) is in agreement with the high concentration of 17β-HSD10 in the model cell line.[15]
A previously published cell line with overexpressed 17β-HSD10 (HEK-293-HSD10)[15] was used to measure 17β-HSD10 inhibition in the cellular environment. For this purpose, the (−)–CHANA fluorogenic probe was used. The cells (density 1 × 10^4 cells per well) were seeded in DMEM (200 μL) without phenol red (Gibco). […] The changes in fluorescent intensities were measured immediately after (-)-CHANA addition and 2 h later. The fluorescence intensities of the CHANK product were taken by using the TECAN SPARK 10 M instrument (Ex/Em = 380/525 nm). The residual 17β-HSD10 activity was calculated as ΔF between 2 and 0 h after (-)-CHANA treatment, and the data were normalized between nontreated HEK-293-HSD10 and native, nontransfected HEK-293 controls (using relative response ratio). […]

The next data set deals with Caco-2 cells. Also on record: method as in PMID 30296546. Conditions: cited from earlier work.
Details of data set [4]: method as in PMID 30296546. The note with it: cited from earlier work.
Details of data set [5]: method as in PMID 30296546. Conditions: cited from earlier work. This is another data set of the same source.

The source of these data is article PMC10938439, “C-3 Steroidal Hemiesters as Inhibitors of 17β-Hydroxysteroid Dehydrogenase Type 10” (ACS Omega, 2024).

Entries after “also recorded” stand apart in the source; their conditions may differ.

In general, inhibition refers to the percentage by which the read-out fell short of the control. By IC50 is commonly meant the point on the concentration scale where inhibition reaches its midpoint. `C[C@@]12CCC[C@H]1[C@@H]1CC=C3C[C@@H](OC(=O)CCCCC(=O)O)CC[C@]3(C)[C@H]1CC2` [Compound 23, Androst-5-en-3β-yl Hemiadipate]: the type of inhibition entry at 17β-HSD10 is recorded as “competitive”. Further, the “cellular viability (CellTiter-Glo)” value in the data set with HEK-293 cells [1] is recorded as “does not influence HEK-293 viability”. For the same molecule, in the data set on HEK-293 cells [2], the “cytotoxicity (CellTox Green)” value is listed as “not cytotoxic; also recorded: not toxic”. The inhibition at 25 µM in data set [3] (HEK293, highest concentration 25 μM, read-out: inhibition of 17β-HSD10 activity in cells) was ~50%. Besides, the IC50 in data set [3] (exact value not determinable, read-out: IC50 at the cellular level) is > 20 µM. In the data set with Caco-2 cells, the “Caco-2 cell permeability (50 μM) Papp” value is listed as 3.1 × 10^–6 cm/s. For the same molecule, the “rat plasma stability, % remaining after 8 h” value in data set [4] is on record as 32%. In data set [5], the “human plasma stability, % remaining after 8 h” value is recorded as 100%.
